Test results reported in PubChem BioAssay AID248 (DTP/NCI, 2004).
Several values for one entry are separate records, joined by “and”; a condition that tells them apart may be missing. Identical values can stand only once. Toxic doses and inconclusive results are not listed.

Tested on: L1210 leukemia ip in BDF1 mice, survival T/C
Test: NCI In Vivo Anticancer Drug Screen. Data for tumor model L1210 Leukemia (intraperitoneal) in B6D2F1 (BDF1) mice
Conditions: endpoint: mean survival time, higher = longer survival
Outline: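 Tumor was transplanted into mice, which were then dosed with test compound or vehicle alone. Survival was recorded for each group, and the treated figure was expressed relative to the control figure.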

[1] = dose: 100.0 mg/kg/injection, schedule: Q01DX009 (ip), vehicle: saline with Tween-80
[2] = dose: 100.0 mg/kg/injection, schedule: Q04DX003 (ip), vehicle: saline with Tween-80
[3] = dose: 200.0 mg/kg/injection, schedule: Q01DX009 (ip), vehicle: saline with Tween-80
[4] = dose: 200.0 mg/kg/injection, schedule: Q04DX003 (ip), vehicle: saline with Tween-80
[5] = dose: 400.0 mg/kg/injection, schedule: Q01DX009 (ip), vehicle: saline with Tween-80
[6] = dose: 400.0 mg/kg/injection, schedule: Q04DX003 (ip), vehicle: saline with Tween-80
[7] = dose: 100.0 mg/kg/injection, schedule: Q01DX009 (ip), vehicle: Klucel (hydroxypropylcellulose) (HPC)
[8] = dose: 100.0 mg/kg/injection, schedule: Q01DX009 (ip), vehicle: saline
[9] = dose: 200.0 mg/kg/injection, schedule: Q01DX009 (ip), vehicle: saline
[10] = dose: 400.0 mg/kg/injection, schedule: Q01DX009 (ip), vehicle: saline
[11] = dose: 100.0 mg/kg/injection, schedule: Q01DX001 (ip), vehicle: saline
[12] = dose: 200.0 mg/kg/injection, schedule: Q01DX001 (ip), vehicle: saline
[13] = dose: 400.0 mg/kg/injection, schedule: Q01DX001 (ip), vehicle: saline
[14] = dose: 100.0 mg/kg/injection, schedule: Q04DX003 (ip), vehicle: Klucel (hydroxypropylcellulose) (HPC)
[15] = dose: 200.0 mg/kg/injection, schedule: Q04DX003 (ip), vehicle: Klucel (hydroxypropylcellulose) (HPC)
[16] = dose: 400.0 mg/kg/injection, schedule: Q04DX003 (ip), vehicle: Klucel (hydroxypropylcellulose) (HPC)
[17] = dose: 25.0 mg/kg/injection, schedule: Q01DX009 (ip), vehicle: Klucel (hydroxypropylcellulose) (HPC)
[18] = dose: 50.0 mg/kg/injection, schedule: Q01DX009 (ip), vehicle: Klucel (hydroxypropylcellulose) (HPC)

CC(C)(C)C1CCC(NC(=O)N(CCCl)N=O)CC1 (stereo not given)
T/C (dose: 16.0 mg/kg/injection, schedule: Q01DX001 (ip), vehicle: other): 116 % of control | T/C (dose: 125.0 mg/kg/injection, schedule: Q01DX001 (ip), vehicle: other): 198 % of control | T/C (dose: 177.0 mg/kg/injection, schedule: Q01DX001 (ip), vehicle: other): 264 % of control | T/C (dose: 250.0 mg/kg/injection, schedule: Q01DX001 (ip), vehicle: other): 259 % of control and 283 % of control | T/C (dose: 354.0 mg/kg/injection, schedule: Q01DX001 (ip), vehicle: other): 272 % of control | T/C (dose: 375.0 mg/kg/injection, schedule: Q01DX001 (ip), vehicle: other): 275 % of control | T/C (dose: 500.0 mg/kg/injection, schedule: Q01DX001 (ip), vehicle: other): 200 % of control and 317 % of control | T/C (dose: 708.0 mg/kg/injection, schedule: Q01DX001 (ip), vehicle: other): 106 % of control | T/C (dose: 750.0 mg/kg/injection, schedule: Q01DX001 (ip), vehicle: other): 170 % of control and 252 % of control | T/C (dose: 1000.0 mg/kg/injection, schedule: Q01DX001 (ip), vehicle: other): 86 % of control | T/C (dose: 1250.0 mg/kg/injection, schedule: Q01DX001 (ip), vehicle: other): 219 % of control | T/C (dose: 2000.0 mg/kg/injection, schedule: Q01DX001 (ip), vehicle: other): 98 % of control

O=C(Nc1ncccn1)c1ccc(Cl)cc1Cl
T/C (dose: 50.0 mg/kg/injection, schedule: Q04DX003 (ip), vehicle: saline with Tween-80): 93 % of control | T/C (dose: 100.0 mg/kg/injection, schedule: Q01DX001 (ip), vehicle: saline with Tween-80): 103 % of control | T/C [1]: 102 % of control | T/C (dose: 100.0 mg/kg/injection, schedule: Q04DX002 (ip), vehicle: saline with Tween-80): 93 % of control and 91 % of control | T/C [2]: 94 % of control and 100 % of control | T/C (dose: 200.0 mg/kg/injection, schedule: Q01DX001 (ip), vehicle: saline with Tween-80): 96 % of control | T/C [3]: 102 % of control | T/C (dose: 200.0 mg/kg/injection, schedule: Q04DX002 (ip), vehicle: saline with Tween-80): 104 % of control | T/C [4]: 91 % of control | T/C (dose: 400.0 mg/kg/injection, schedule: Q01DX001 (ip), vehicle: saline with Tween-80): 96 % of control | T/C [5]: 100 % of control | T/C (dose: 400.0 mg/kg/injection, schedule: Q04DX002 (ip), vehicle: saline with Tween-80): 105 % of control and 107 % of control | T/C [6]: 103 % of control and 92 % of control

Cc1ccc([N+](=O)[O-])cc1NC(=O)NCc1ccccc1
T/C [7]: 89 % of control | T/C (dose: 200.0 mg/kg/injection, schedule: Q01DX009 (ip), vehicle: Klucel (hydroxypropylcellulose) (HPC)): 89 % of control | T/C (dose: 400.0 mg/kg/injection, schedule: Q01DX009 (ip), vehicle: Klucel (hydroxypropylcellulose) (HPC)): 97 % of control

S=c1[nH]c(Cc2ccccc2)cs1
T/C (dose: 100.0 mg/kg/injection, schedule: Q01DX001 (sc), vehicle: carboxymethylcellulose (CMC)): 103 % of control | T/C (dose: 200.0 mg/kg/injection, schedule: Q01DX001 (sc), vehicle: carboxymethylcellulose (CMC)): 105 % of control | T/C (dose: 400.0 mg/kg/injection, schedule: Q01DX001 (sc), vehicle: carboxymethylcellulose (CMC)): 103 % of control

OC(CC(O)(C(F)(F)F)C(F)(F)F)CC(O)(C(F)(F)F)C(F)(F)F
T/C (dose: 25.0 mg/kg/injection, schedule: Q01DX009 (ip), vehicle: saline with Tween-80): 101 % of control | T/C [2]: 95 % of control

CC1=CCC(O)(C(C)C)CC1 (stereo not given)
T/C [8]: 93 % of control | T/C [9]: 93 % of control | T/C [10]: 95 % of control

CCOc1ccc(C(=O)Nc2c(C)cc(C)cc2C)cc1
T/C [1]: 96 % of control | T/C [2]: 100 % of control | T/C [3]: 96 % of control | T/C [4]: 93 % of control | T/C [5]: 101 % of control | T/C [6]: 94 % of control

CC1(C)C2CCC1(C)C(CO)C2 (stereo not given)
T/C (dose: 100.0 mg/kg/injection, schedule: Q04DX003 (ip), vehicle: other): 100 % of control | T/C (dose: 200.0 mg/kg/injection, schedule: Q04DX003 (ip), vehicle: other): 102 % of control

O=C1c2ccccc2CCC12OC2c1ccccc1[N+](=O)[O-] (stereo not given)
T/C [8]: 88 % of control | T/C (dose: 100.0 mg/kg/injection, schedule: Q04DX003 (ip), vehicle: acetone): 98 % of control | T/C [9]: 89 % of control | T/C (dose: 200.0 mg/kg/injection, schedule: Q04DX003 (ip), vehicle: acetone): 93 % of control | T/C [10]: 98 % of control | T/C (dose: 400.0 mg/kg/injection, schedule: Q04DX003 (ip), vehicle: acetone): 109 % of control

CCCCCCCCCC/C=C/c1c(C)[nH]c2ccccc2c1=O
T/C (dose: 100.0 mg/kg/injection, schedule: Q01DX009 (ip), vehicle: alcohol): 98 % of control | T/C (dose: 100.0 mg/kg/injection, schedule: Q04DX003 (ip), vehicle: alcohol): 93 % of control | T/C (dose: 200.0 mg/kg/injection, schedule: Q04DX003 (ip), vehicle: alcohol): 100 % of control | T/C (dose: 400.0 mg/kg/injection, schedule: Q04DX003 (ip), vehicle: alcohol): 88 % of control

O=c1c(=NNc2ccccc2)c(=O)c2ccccc12
T/C (dose: 50.0 mg/kg/injection, schedule: Q01DX001 (ip), vehicle: saline): 94 % of control | T/C [11]: 94 % of control | T/C [12]: 88 % of control | T/C [13]: 102 % of control

O=c1oc2ccc(Cl)cc2c2ccccc12
T/C [14]: 98 % of control | T/C [15]: 100 % of control | T/C [16]: 104 % of control

CNC(=O)Oc1ccccc1C(N)=O
T/C [17]: 110 % of control | T/C [18]: 96 % of control | T/C [7]: 96 % of control and 92 % of control

CC1(C(Cl)Cl)CCCCC1=O (stereo not given)
T/C (dose: 5.0 mg/kg/injection, schedule: Q01DX001 (ip), vehicle: saline): 95 % of control | T/C (dose: 10.0 mg/kg/injection, schedule: Q01DX001 (ip), vehicle: saline): 96 % of control | T/C (dose: 20.0 mg/kg/injection, schedule: Q01DX001 (ip), vehicle: saline): 109 % of control | T/C (dose: 40.0 mg/kg/injection, schedule: Q01DX001 (ip), vehicle: saline): 100 % of control | T/C (dose: 80.0 mg/kg/injection, schedule: Q01DX001 (ip), vehicle: saline): 97 % of control | T/C [11]: 104 % of control

CC(=O)NCC1OC(COCc2ccccc2)C(OCc2ccccc2)C1OCc1ccccc1 (stereo not given)
T/C [14]: 107 % of control | T/C [15]: 96 % of control | T/C [16]: 107 % of control

CCCCCCCCCC(=O)Oc1nncc(=O)[nH]1
T/C (dose: 50.0 mg/kg/injection, schedule: Q01DX009 (ip), vehicle: saline): 87 % of control | T/C [8]: 97 % of control | T/C [9]: 104 % of control

O=C1NC(c2ccccc2)(c2ccccc2)C(=O)N1SC(Cl)(Cl)Cl
T/C (dose: 25.0 mg/kg/injection, schedule: Q04DX002 (ip), vehicle: Klucel (hydroxypropylcellulose) (HPC)): 100 % of control | T/C (dose: 50.0 mg/kg/injection, schedule: Q04DX002 (ip), vehicle: Klucel (hydroxypropylcellulose) (HPC)): 118 % of control

O=[N+]([O-])c1ccc(NC(=S)Nc2cc([N+](=O)[O-])ccc2Cl)cc1
T/C (dose: 50.0 mg/kg/injection, schedule: Q01DX009 (ip), vehicle: saline with Tween-80): 98 % of control | T/C [1]: 91 % of control | T/C [3]: 91 % of control

Cn1nc(SCc2ccccc2)c(N)nc1=O
T/C [11]: 102 % of control | T/C [12]: 100 % of control | T/C [13]: 101 % of control

CN(C)CCN(Cc1ccccc1)c1ccccc1
T/C [17]: 98 % of control | T/C (dose: 25.0 mg/kg/injection, schedule: Q04DX003 (ip), vehicle: Klucel (hydroxypropylcellulose) (HPC)): 95 % of control | T/C [18]: 102 % of control | T/C (dose: 50.0 mg/kg/injection, schedule: Q04DX003 (ip), vehicle: Klucel (hydroxypropylcellulose) (HPC)): 103 % of control | T/C [7]: 106 % of control | T/C [14]: 103 % of control
